From patent US20250270190A1, “KIT INHIBITORS” (BLUEPRINT MEDICINES CORPORATION, priority 2022, published 2025) come the findings set out here.

For this test, the target named is T1, c-kit autophosphorylation (Phospho c-Kit Tyr721) in HMC 1.1 (exon 11/13) cells, V654A (Homo sapiens, UniProt P10721, V560G/V654A).
T1 construct: endogenous in cells; host or cells: HMC 1.1 (exon 11/13) cells
T1 sequence (P10721 26-976 V560G/V654A): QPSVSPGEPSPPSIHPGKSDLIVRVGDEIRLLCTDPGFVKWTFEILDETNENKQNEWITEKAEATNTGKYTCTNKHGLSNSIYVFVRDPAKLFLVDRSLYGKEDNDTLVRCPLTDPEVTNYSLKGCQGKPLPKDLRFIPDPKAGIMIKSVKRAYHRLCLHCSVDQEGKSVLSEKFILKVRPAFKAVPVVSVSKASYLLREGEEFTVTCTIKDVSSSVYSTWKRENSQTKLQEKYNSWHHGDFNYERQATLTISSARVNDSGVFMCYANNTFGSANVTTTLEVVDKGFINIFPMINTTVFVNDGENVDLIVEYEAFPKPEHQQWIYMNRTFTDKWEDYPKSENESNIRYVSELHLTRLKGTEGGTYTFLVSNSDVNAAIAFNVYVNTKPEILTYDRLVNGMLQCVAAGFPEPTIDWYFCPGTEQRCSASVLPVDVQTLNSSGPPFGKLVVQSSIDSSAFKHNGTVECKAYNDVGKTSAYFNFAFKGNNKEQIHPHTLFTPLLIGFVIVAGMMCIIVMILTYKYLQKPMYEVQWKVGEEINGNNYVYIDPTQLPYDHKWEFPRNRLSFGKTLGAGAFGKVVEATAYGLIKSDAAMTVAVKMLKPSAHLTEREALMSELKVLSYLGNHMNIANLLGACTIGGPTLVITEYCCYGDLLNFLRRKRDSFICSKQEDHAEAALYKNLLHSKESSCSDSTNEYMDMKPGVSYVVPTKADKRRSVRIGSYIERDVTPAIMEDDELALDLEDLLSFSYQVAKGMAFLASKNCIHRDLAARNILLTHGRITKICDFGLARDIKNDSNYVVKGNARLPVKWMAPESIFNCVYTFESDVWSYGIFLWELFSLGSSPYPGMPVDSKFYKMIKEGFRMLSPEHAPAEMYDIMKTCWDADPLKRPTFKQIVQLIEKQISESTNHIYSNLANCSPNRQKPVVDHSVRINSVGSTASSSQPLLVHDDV
Put plainly: pKIT Meso Scale Discovery (MSD) assay, inhibition of autophosphorylation of KIT, HMC1.1_V654A. To be noted: Table 1, cell line not named for Table 1, b1056 names pKIT HMC1.1_V654A, read-out: Code (IC50 for inhibition of autophosphorylation of KIT, pKIT MSD assay). In kind it is cell-based. The source says: In this MSD assay, specific capture antibodies for the analytes were coated in arrays in each well of a 96-well carbon electrode plate surface. The detection system used SULFO-TAG™ labels that emit light upon electrochemical stimulation initiated at the electrode surfaces of the […] and MULTI-SPOT® plates. The electrical stimulation was decoupled from the output signal, which was light and generated assays with minimal background. The goal of this assay was to assess the percent inhibition of autophosphorylation of c-kit in cells when treated with compounds of the disclosure in a dose-dependent manner.
HMC1.1 cells were maintained in IMDM media supplemented with 20% Calf Serum with Iron and 100 units/mL Penicillin-Streptomycin and grown in a 37° C. humidified tissue culture incubator. HMC1.1 cells were passaged by 1:5 dilution into fresh IMDM media supplemented with 20% Calf Serum with Iron and 100 units/mL Penicillin-Streptomycin every 5-7 days and were discarded after 20 passages.
Seeding was performed as follows: HMC cells were brought to 1×10^6 cells/mL in fresh phenol red free, serum-free, iron-free IDM media with Pen/Strep; cells were seeded/plated into respective U-bottom plate by dispensing 50 μL/well (50,000 cells) using the Multidrop, and covered and incubated cells at 37° C. in a humidified tissue culture incubator for 4 hours (starvation).
Dosing was performed as follows: The compound mother plate was prepared by adding 16 μL of compound to 24 μL of DMSO to row A, odd-numbered columns of screen matrix plate. […] Intermediate plates were prepared in V-bottom plates by dispensing 98 μL of phenol red free, serum free IMDM media with Pen/Strep into all wells. 2 μL DMSO or 2 μL 10 mM staurosporine was added to appropriate control wells. At the end of four hours, the Bravo protocol 10 cpds vertical dose MSD 2 U-plates 96-well was used to: add 2 μL from the compound plate to the intermediate plate and dose cells with 7 μL from the intermediate plate. The cells were covered and incubated at 37° C. in a humidified tissue culture incubator for 90 min. The complete lysis buffer was prepared with AlphaLISA 5× Lysis Buffer supplemented with 1× protease inhibitor cocktail and kept on ice. The cells were pelleted by centrifuging plate at 2500×g for 5 min, 4° C. and media removed. Complete lysis buffer was added (14 μL/well). The cells were covered and shaken at 4° C. on a plate shaker at 600 rpm for 30 min and kept cold
The MSD protocol was preformed as follows: Tris Wash Buffer (2L) was prepared by diluting 10× stock of Tris Wash Buffer to 1× in water. Blocking Solution was prepared by dissolving 600 mg Blocker A in 20 mL 1× Trish Wash Buffer (per plate). The Antibody Dilution Buffer was prepared by mixing 1 mL Blocking solution and 2 mL 1× Trish Wash Buffer (per plate) and kept on ice. Blocking Solution was added (150 μL/well) to each MSD plate using a multichannel repeater pipette. The plate was covered and incubated at room temperature on a plate shaker at 700 rpm for hr. The Bio Tek protocol RL-96w-wash-MSD_stacker_fromC was used to wash plates 3× with 150 μL/well. Cells were pelleted by centrifuging lysate plates at 2500×g for 5 mins. The Bravo protocol was used (transfer 25 ul supernatants from V-96 to assay plate) to transfer 25 μL sample lysate per well to each MSD plate. The plates were covered and incubated at room temperature on a plate shaker at 700 rpm for hr. The Bio Tek protocol RL-96w-wash-MSD_stacker_fromC was used to wash plates 3× with 150 μL/well. The Detection Antibody Solution was prepared by diluting the 60 μL of the 50× antibody stock in 2.94 mL of the Antibody Dilution Buffer (per plate) and kept on ice. 25 μL/well of detection antibody solution was added to each MSD plate. The plates were covered and incubated at room temperature on a plate shaker at 700 rpm for 1 hr. The Read Buffer was prepared by diluting 5 mL of 4× stock of Read Buffer to 1× in 15 mL water (per plate).
As for “6-((6-amino-2-(difluoromethyl)pyrimidin-4-yl)amino)-N-methyl-4-((4-methyltetrahydro-2H-pyran-4-yl)amino)nicotinamide [Compound 125]”, the IC50 is less than 10 nM.
On to “6-((6-amino-4-(difluoromethyl)pyridin-2-yl)amino)-4-(((1R,2S)-2-fluorocyclopropyl)amino)-N-methylnicotinamide [Compound 44]”, for which the IC50 is 10 to 40 nM.
For “6-((6-amino-4-(difluoromethyl)pyridin-2-yl)amino)-4-(((1S,2R)-2-fluorocyclopropyl)amino)-N-methylnicotinamide [Compound 45]” the value was 10 to 40 nM; for `CNC(=O)c1cnc(Nc2cc(N)nc(CF)n2)cc1NC(C)CF` (single isomer, unassigned) [Compound 27, (S)-6-((6-amino-2-(fluoromethyl)pyrimidin-4-yl)amino)-4-((1-fluoropropan-2-yl)amino)-N-methylnicotinamide or (R)-6-((6-amino-2-(fluoromethyl)pyrimidin-4-yl)amino)-4-((1-fluoropropan-2-yl)amino)-N-methylnicotinamide], 10 to 40 nM.
For `CNC(=O)c1cnc(Nc2cc(N)nc(CF)n2)cc1NC(C)CF` (single isomer, unassigned) [Compound 28, (R)-6-((6-amino-2-(fluoromethyl)pyrimidin-4-yl)amino)-4-((1-fluoropropan-2-yl)amino)-N-methylnicotinamide or (S)-6-((6-amino-2-(fluoromethyl)pyrimidin-4-yl)amino)-4-((1-fluoropropan-2-yl)amino)-N-methylnicotinamide] the value was more than 40 nM.
In the case of `C[C@@H](CF)Oc1cc(Nc2cc(N)nc(C(F)F)n2)ncc1-c1cnn(C)c1` (single isomer, unassigned) [Compound 87, (S)-2-(difluoromethyl)-N4-(4-((1-fluoropropan-2-yl)oxy)-5-(1-methyl-1H-pyrazol-4-yl)pyridin-2-yl)pyrimidine-4,6-diamine or (R)-2-(difluoromethyl)-N4-(4-((1-fluoropropan-2-yl)oxy)-5-(1-methyl-1H-pyrazol-4-yl)pyridin-2-yl)pyrimidine-4,6-diamine], the IC50 is less than 10 nM.
For `C[C@H](CF)Oc1cc(Nc2cc(N)nc(C(F)F)n2)ncc1-c1cnn(C)c1` (single isomer, unassigned) [Compound 88, (R)-2-(difluoromethyl)-N4-(4-((1-fluoropropan-2-yl)oxy)-5-(1-methyl-1H-pyrazol-4-yl)pyridin-2-yl)pyrimidine-4,6-diamine or (S)-2-(difluoromethyl)-N4-(4-((1-fluoropropan-2-yl)oxy)-5-(1-methyl-1H-pyrazol-4-yl)pyridin-2-yl)pyrimidine-4,6-diamine] the value was less than 10 nM.
For `COc1cc(Nc2cc(N)nc(C(F)F)n2)ncc1-c1cnn([C@H]2CCNC2)c1` (single isomer, unassigned) [Compound 99, (S)-2-(difluoromethyl)-N4-(4-methoxy-5-(1-(pyrrolidin-3-yl)-1H-pyrazol-4-yl)pyridin-2-yl)pyrimidine-4,6-diamine or (R)-2-(difluoromethyl)-N4-(4-methoxy-5-(1-(pyrrolidin-3-yl)-1H-pyrazol-4-yl)pyridin-2-yl)pyrimidine-4,6-diamine] the value was 10 to 40 nM.
For `COc1cc(Nc2cc(N)nc(C(F)F)n2)ncc1-c1cnn([C@@H]2CCNC2)c1` (single isomer, unassigned) [Compound 100, (R)-2-(difluoromethyl)-N4-(4-methoxy-5-(1-(pyrrolidin-3-yl)-1H-pyrazol-4-yl)pyridin-2-yl)pyrimidine-4,6-diamine or (S)-2-(difluoromethyl)-N4-(4-methoxy-5-(1-(pyrrolidin-3-yl)-1H-pyrazol-4-yl)pyridin-2-yl)pyrimidine-4,6-diamine] the value was 10 to 40 nM; for `COc1cc(Nc2cc(N)nc(C(F)F)n2)ncc1-c1cnn(C[C@H]2CCN2)c1` (single isomer, unassigned) [Compound 101, (R)-N4-(5-(1-(azetidin-2-ylmethyl)-1H-pyrazol-4-yl)-4-methoxypyridin-2-yl)-2-(difluoromethyl)pyrimidine-4,6-diamine or (S)-N4-(5-(1-(azetidin-2-ylmethyl)-1H-pyrazol-4-yl)-4-methoxypyridin-2-yl)-2-(difluoromethyl)pyrimidine-4,6-diamine], more than 40 nM; for `COc1cc(Nc2cc(N)nc(C(F)F)n2)ncc1-c1cnn(C[C@@H]2CCN2)c1` (single isomer, unassigned) [Compound 102, (S)-N4-(5-(1-(azetidin-2-ylmethyl)-1H-pyrazol-4-yl)-4-methoxypyridin-2-yl)-2-(difluoromethyl)pyrimidine-4,6-diamine or (R)-N4-(5-(1-(azetidin-2-ylmethyl)-1H-pyrazol-4-yl)-4-methoxypyridin-2-yl)-2-(difluoromethyl)pyrimidine-4,6-diamine], less than 10 nM.
As for `COc1cc(Nc2cc(N)nc(C(F)F)n2)ncc1-c1cnn([C@H]2CCOC2)c1` (single isomer, unassigned) [Compound 109, (S)-2-(difluoromethyl)-N4-(4-methoxy-5-(1-(tetrahydrofuran-3-yl)-1H-pyrazol-4-yl)pyridin-2-yl)pyrimidine-4,6-diamine or (R)-2-(difluoromethyl)-N4-(4-methoxy-5-(1-(tetrahydrofuran-3-yl)-1H-pyrazol-4-yl)pyridin-2-yl)pyrimidine-4,6-diamine], the IC50 was less than 10 nM.
For `COc1cc(Nc2cc(N)nc(C(F)F)n2)ncc1-c1cnn([C@@H]2CCOC2)c1` (single isomer, unassigned) [Compound 110, (R)-2-(difluoromethyl)-N4-(4-methoxy-5-(1-(tetrahydrofuran-3-yl)-1H-pyrazol-4-yl)pyridin-2-yl)pyrimidine-4,6-diamine or (S)-2-(difluoromethyl)-N4-(4-methoxy-5-(1-(tetrahydrofuran-3-yl)-1H-pyrazol-4-yl)pyridin-2-yl)pyrimidine-4,6-diamine] the value was less than 10 nM.
For `CN[C@@H](C)Cn1cc(-c2cnc(Nc3cc(N)nc(C(F)F)n3)cc2OC)cn1` (single isomer, unassigned) [Compound 117, (S)-2-(difluoromethyl)-N4-(4-methoxy-5-(1-(2-(methylamino)propyl)-1H-pyrazol-4-yl)pyridin-2-yl)pyrimidine-4,6-diamine or (R)-2-(difluoromethyl)-N4-(4-methoxy-5-(1-(2-(methylamino)propyl)-1H-pyrazol-4-yl)pyridin-2-yl)pyrimidine-4,6-diamine] the value was less than 10 nM; for `CN[C@H](C)Cn1cc(-c2cnc(Nc3cc(N)nc(C(F)F)n3)cc2OC)cn1` (single isomer, unassigned) [Compound 118, (R)-2-(difluoromethyl)-N4-(4-methoxy-5-(1-(2-(methylamino)propyl)-1H-pyrazol-4-yl)pyridin-2-yl)pyrimidine-4,6-diamine or (S)-2-(difluoromethyl)-N4-(4-methoxy-5-(1-(2-(methylamino)propyl)-1H-pyrazol-4-yl)pyridin-2-yl)pyrimidine-4,6-diamine], 10 to 40 nM.

As usually defined, the IC50 is the midpoint of a concentration-inhibition curve.
